Reference: patent US20110028458A1, “INHIBITION OF CELL MIGRATION BY A FARNESYLATED DIBENZODIAZEPINONE” (THALLION PHARMACEUTICALS INC., priority 2008, published 2011)
Where two headings read alike, the source gives them in different places.

Legend:
MES-SA = test: MTT growth inhibitory assay, MES-SA; type: cell-based, human; settings: 72 hours
Experimental: (§1) Growth inhibitory activity of TLN-4601 (Compound 1) and other dibenzodiazepinone analogs was evaluated on a panel of 4 human tumor cell lines: the human uterine sarcoma MES-SA and its doxorubicin-resistant P-glycoprotein over-expressing variant, MES-SA/DX5 as well as non-aggressive and highly aggressive human breast cell lines, MCF-7 and MDA-MB-231, respectively. These four cell lines were obtained from the American Type Culture Collection (Manassas, Va.) and cultured in RPMI plus 10% fetal bovine serum (FBS) and maintained at 37° C. with 5% CO2.
(§2) Exponentially growing cells (5,000 cells per well time; cell number determined with a hemocytometer) were seeded in 96-well flat-bottom plates and allowed to grow overnight. Cells were then incubated for 72 hours with three different concentrations of TLN-4601 or analogs: 30, 10, and 3 μM. The in vitro growth inhibitory activity was determined by a commercial MTT assay. All measurements were done in quadruplicate and each experiment was performed 2-3 times. The lower the value, the more cytotoxic is the compound.

MCF-7 = test: MTT growth inhibitory assay, MCF-7; type: cell-based, human; settings: 72 hours
Experimental: as §1, §2

MDA-MB-231 = test: MTT growth inhibitory assay, MDA-MB-231; type: cell-based, human; settings: 72 hours
Experimental: as §1, §2

MES-SA/DX5 = test: MTT growth inhibitory assay, MES-SA/DX5; type: cell-based, human; settings: 72 hours
Experimental: as §1, §2

[1] = test system: colon carcinoma tumor cell lines; test: NCI panel, colon carcinoma; type: cell-based; settings: Homo sapiens; read-out: GI50 range, colon carcinoma
Text: (§3) A study measuring the in vitro cytotoxic activity of Compound 1 was first performed by the NCI (National Cancer Institute, U.S. National Institutes of Health, Bethesda, Md., USA) against a panel of human cancer cell lines. This screen utilizes 60 different human tumor cell lines, representing cancers of the blood, skin, lung, colon, brain, ovary, breast, prostate, and kidney. Further information regarding the NCI panel of human cancer lines can be obtained by following the links at the NCI world-wide website of the National Cancer Institute. The compound was sent and tested on three occasions (Mar. 31, 2003; Dec. 1, 2003; Mar. 27, 2007).

U87 parental = test: Caspase-3 activity, U87 parental cells; type: cell-based, human; settings: 18 h, serum-free medium
Experimental: Firstly, cells (U87 parental, U87 transfected with EGFR-WT, and U87 transfected with mutated EGFR VIII) were plated in 6 well plates in DMEM containing 10% FBS. The following day, the plated cells were treated with increasing concentrations of Compound 1 (TLN-4601) in serum-free medium. After an 18 h incubation period in the presence of Compound 1, the treated cells were measured for caspase-3 activity using a commercial kit.

[2] = test system: 60 different human tumor cell lines; test: NCI in vitro screening, 60 human tumor cell lines; type: cell-based; settings: 60 cell lines
Text: as §3

[3] = TLN-4601 concentrations in plasma and tissues of rats with C6 orthotopic brain tumors; type: in vivo; settings: rat; for concentration at 60 min: CIV for 60 min
Experimental: (R)-1-(2-chlorophenyl)-[…]N-(1-methyl-propyl)-3-isoquinoline carboxamide (R N-desmethyl PK11195), the precursor for the radioisotope-labeled (R)-PK11195, was purchased from ABX (Radeburg, Germany). The synthesis of ^11C-(R)-PK11195 was accomplished by a modification of the method of Camsonne et al. (J. Label. Compd. Radiopharm., 21: 985-991, 1984). In vivo PET studies were performed 14 days post tumor implantation. PET imaging studies were performed while the animals were anesthetized and placed in the supine position on the bed and at the center of the FOV of the CTI Concorde R4 microPET scanner (Siemens/CTI Concorde, Knoxville, Tenn.). Each dynamic PET study lasted 60 min and was initiated with an IV bolus administration of 11C-PK11195 (7.1-12.7 MBq) radioligand via the tail vein. Receptor occupancy studies were performed by acquisition of 11C-PK11195 images prior to and during TLN-4601 treatment over 60 minutes. TLN-4601 was administered by a bolus IV infusion (30 mg/kg) followed by continuous IV infusion (5 mg/h/kg) lasting through the dynamic scan. Attenuation correction factors, for each 6 rats, were determined using a 10 minute 57 Co transmission scan acquired immediately prior to the dynamic scan. In addition, all images were scatter corrected.
Following completion of in vivo studies, animals were sacrificed by anesthetic overdose and decapitated. Brain, tumor, and liver were snap-frozen in liquid nitrogen and stored frozen (−70° C.±10° C.). For blood samples, each blood sample was collected into a K2-EDTA tube and kept on wet ice for a maximum of 30 minutes. Blood samples were centrifuged under refrigeration (2 to 8° C.) for 10 minutes at 1,500 g (RCF). A volume of 25 μL of aqueous 4% w/v L-ascorbic acid was added to a volume of 225 μL of rat plasma in a clean tube, and the samples were thoroughly mixed by inversion. A volume of 125 uL of the resulting mixture was transferred to a separate tube for bioanalysis, while the remaining mixture was maintained as a backup, and both the bioanalysis and back-up portions were frozen on dry ice and stored frozen (−70° C.±10° C.).
Rat plasma and tissue samples were extracted with 9 volumes of acetone containing 100 ng/mL of the internal standard (Compound 2) and analysed by HPLC/MS/MS as described in Gourdeau et al (Cancer Chemother Pharmacol vol 61 pp. 911-921).

[4] = test system: U87 glioma cells and HVMEC-B; test: Fluorimetric caspase-3 activity, U87 glioma versus brain endothelial cells; type: cell-based, human; settings: 0-30 μM, 18 hours
Experimental: To test the effect of Compound 1 on caspase 3 activity in endothelial cells, the following experiment was conducted. HVMEC-B and U87 glioma cells were treated with increasing concentrations of Compound 1 (0-30 μM) in serum-free media for 18 hours. Fluorimetric caspase-3 activity assay was performed as follows: cells were grown to about 60% confluence in 6-well dishes and treated with increasing concentrations of Compound 1 for 18 hours. Cells were then collected and washed in ice-cold PBS pH 7.0. Cells were subsequently lysed in Apo-Alert lysis buffer (Clontech, Palo Alto, Calif.) for 1 hr at 4° C. and the lysates were clarified by centrifugation. Caspase-3 activity was determined by incubation with 50 μM caspase-3-specific fluorogenic peptide substrate acetyl-Asp-Glu-Val-Asp-7-amino-4-trifluoromethylcoumarin (Ac-DEVD-AFC) in 96-well plates. The release of AFC was monitored for at least 30 min at 37° C. on a fluorescence plate reader (Molecular Dynamics (Amersham Biosciences Inc, Sunnyvale, Calif.)) (λex=400 nm, λem=505 nm).

SRBC = test: Hemolysis of SRBC; type: cell-based
[5] = test system: breast carcinoma tumor cell lines; test: NCI panel, breast carcinoma; type: cell-based; settings: Homo sapiens; read-out: GI50 range, breast carcinoma
Text: as §3

[6] = test system: ovarian carcinoma tumor cell lines; test: NCI panel, ovarian carcinoma; type: cell-based; settings: Homo sapiens; read-out: GI50 range, ovarian carcinoma
Text: as §3

PBR = target: T1, PBR (Rattus norvegicus, UniProt P16257); test: In-house PBR binding assay, [3H]PK11195, rat heart mitochondrial membrane
T1 construct: containing the enriched mitochondria membrane preparation (25 μg of protein); from tissue; host or cells: Sprague Dawley rat heart, enriched mitochondrial membrane preparation
Experimental: Hearts obtained from 3 Sprague Dawley rats were homogenized in 20 volumes of ice-cold 50 mM Tris-HCl, pH 7.5. After two centrifugations at 1500 g for 10 minutes at 4° C., the supernatant was centrifuged at 48000 g for 20 minutes at 4° C. The resulting pellet was resuspended in 50 mM Tris-HCl pH 7.5 and protein concentration was estimated by the Bradford colorimetric staining method using BSA as the standard. […] In parallel, non-specific binding was measured with the presence of 20 μM cold PK11195. Samples were distributed onto 96-well GF/B filtration plates and incubated for 60 minutes at 25° C. and then washed once with PBR-binding buffer.

Compound | % T/C at 10 μM, MES-SA (MES-SA) [%] | % T/C at 10 μM, MCF-7 (MCF-7) [%] | % T/C at 10 μM, MDA-MB-231 (MDA-MB-231) [%] | % T/C at 10 μM, MES-SA/DX5 (MES-SA/DX5) [%] | GI50 [1] [µM] | increase in caspase-3 activation (U87 parental) | cytotoxic activity in the NCI panel [2] | concentration at 60 min ([3]; Sprague-Dawley, liver, intravenous, read-out: concentration in liver) [ng/g] | concentration at 60 min ([3]; Sprague-Dawley, plasma, intravenous, read-out: concentration in plasma) [ng/g] | Kp at 60 min ([3]; Sprague-Dawley, tumor / plasma, intravenous, read-out: tumor compared to plasma) | concentration at 60 min ([3]; Sprague-Dawley, tumor, intravenous, read-out: accumulation in the tumor) [µg/mL] | tumor compared to liver ([3]; in vivo) [fold] | caspase-3 activity of U87 glioma cells compared to normal human brain endothelial cells [4] | Hemolysis ED50 (concentration necessary to achieve 50% hemolysis of SRBC) (SRBC) [µg/mL] | GI50 [5] [µM] | GI50 [6] [µM] | IC50 (PBR) [µM]
CC(C)=CCC/C(C)=C/CC/C(C)=C/CN1C(=O)c2cccc(O)c2N(C)c2c1cc(O)c(Br)c2O [Compound 99] | 28 | 50 | 55 | 24 | – | – | – | – | – | – | – | – | – | – | – | – | –
CC(C)=CCC/C(C)=C/CC/C(C)=C/CN1C(=O)c2cccc(O)c2Nc2c(O)cc(O)cc21 [Compound 1, 10-farnesyl-4,6,8-trihydroxy-5,10-dihydrodibenzo[b,e][1,4]diazepin-11-one] | – | – | – | – | 3 to 17.3 | approximately 15 fold | broad cytotoxic activity in the low micromolar range | 24800 | 16200 | 11 | 176 | 7 | 2-3 fold | 7.6 | 1.4 to 16.3 | 2.5 to 6.2 | –
CC(C)=CCC/C(C)=C/CC/C(C)=C/CN1C(=O)c2cccc(O)c2Nc2c1cc(O)c(Br)c2O [Compound 97] | 80 | 28 | 68 | 83 | – | – | – | – | – | – | – | – | – | 15.1 | – | – | 2.6
